We go through 6 molecules from patent US20110237495A1, “FUNCTIONAL METABOLOMICS COUPLED MICROFLUIDIC CHEMOTAXIS DEVICE AND IDENTIFICATION OF NOVEL CELL MEDIATORS” (The Brigham and Women's Hospital, Inc. Corporate Sponsored …, priority 2008, published 2011).

The conditions of series [1]: cited from earlier work.
The nature of series [2]: Metabolic inactivation of RvE1 by mouse lung tissue. Type of series: in vitro ADME.
For series [3], the system named is leukocyte infiltration in lung tissues. In words: Hind-limb ischemia-reperfusion-induced second-organ (lung) injury, lung MPO by ELISA. Type of series: in vivo, mice. Conditions: for effect on leukocyte (PMN) infiltration / MPO in lung tissue, in words: 1 μg/mouse i.v.; for reduction of lung MPO concentration (FIG. 7D), mean±SEM: 1 μg i.v. 5 min before reperfusion, lungs collected after 2 h reperfusion. As to the method:
To identify the effects of the resolvins and protectins on inflammation resolution, ischemia-reperfusion induced second-organ injury experiments were designed and are illustrated in FIGS. 7A-D. Mice were anesthetized by intraperitoneal injection of pentobarbital (80 mg kg^−1, Nembutal sodium solution NDC 0074-3778-04). Hind-limb ischemia was initiated using tourniquets consisting of a rubber band placed on each hind limb as in ref.^35. Mice were subjected to hind limb ischemia for 1 h, after which the tourniquets were removed to initiate reflow-reperfusion. Resolvins, related compounds and analogs were each administered at 1 μg/mouse (i.e., DHA, RvD1, RvD1 methyl ester, 17-(R/S)-methyl-RvD1 methyl ester, RvE1, or 19-p-fluorophenoxy-RvE1 methyl ester) in vehicle (5 μl ethanol in 120 μl sterile saline) or vehicle alone. They were administered intravenously to the tail vein ˜5 min before the start of the reperfusion period. At the end of this reperfusion period (2 h), the mice were euthanized with an overdose of anesthetic and the lungs were quickly harvested, frozen in liquid nitrogen, and stored at −80° C. The right lungs were homogenized from individual mice and centrifuged, and the tissue levels of myeloperoxidase (MPO) (a leukocyte marker enzyme) in the resulting supernatants, for each experimental protocol, were determined using a mouse MPO enzyme-linked immunosorbent assay (Hycult biotechnology, Cell Sciences, Uden, The Netherlands).
Briefly, as illustrated in the time-course shown in FIG. 7A, hind-limb ischemia was induced in mice by creating tourniquets using a rubber band on each hind limb. After 1 h, the tourniquets were removed and reperfusion ensued. Test compounds (1 μg of DHA, RvD1, RvE1) in vehicle were administered intravenously 5 min before the start of the reperfusion period. At the end of the reperfusion period (2 h), lungs were collected and MPO concentrations were determined by ELISA. FIGS. 7B and C are representative images from histological analysis. FIG. 9B is a photomicrograph showing a hematoxylin/eosin-stained lung from ischemia/reperfusion second organ injury (control). […] Mean±SEM (n=3-5, control; n=12).
Ischemia/reperfusion is a well-appreciated pathophysiologic mechanism of organ injury and local tissue damage that can be initiated by excessively activated PMN. This system in the mouse, models the second organ injury observed in humans following tourniquet release of vessels in surgery involving, for example, extremities^41, 42. Remote or second organ injury can also occur when blood vessels are occluded, or during certain surgical procedures that create local ischemia and remote organ injury that has many features of rapid, acute inflammation and tissue damage^35. On release of the tourniquet occlusion, reflow is initiated and activated PMN rapidly infiltrate secondary organs, causing damage^35. Here, the inventors evaluated RvD1 in a remote organ injury system, i.e., hind-limb ischemia/reperfusion, to assess whether RvD1's ability to inhibit PMN migration, in vitro, in microchambers (FIGS. 8A-C, 9-11) can be predictive of their effect to reduce PMN mediated tissue and organ damage in vivo. […] The extent of lung tissue injury is associated with PMN activation and organ infiltration^35.
(In general: ELISA stands for enzyme-linked immunosorbent assay.)

For series [4] the following is noted: human plasma; cited from earlier work.
A further series deals with human PMN. As to the kind of experiment: Microfluidic chemotaxis device: PMN chemotaxis in IL-8 gradient. Type of series: cell-based. As to conditions: 10 nM (DHA equimolar), PMN captured on P-selectin from a drop of whole blood, n=12. The text has this: A new microvolume chemotaxis device was designed using polyethylene glycol (PEG) that allows testing the chemotactic function of neutrophils and their responses to these novel lipid mediators immediately after being separated from whole blood within the device. One exemplary embodiment of the device is illustrated in FIGS. 8A-C. In this embodiment, the microvolume chemotaxis device with microstructured valves was fabricated using “lab-on-chip” microfabrication technologies^36. Briefly, two silicon wafers were coated with a 50-μm-thick layer of SU8 photoresist (MicroChem, Newton, Mass.). After exposure to UV light through a mylar mask in a mask, aligner and development following manufacturer recommendations, 50 μm-tall features were produced on top of the silicon wafers. Subsequently, poly (dimethylsiloxane) (PDMS, Dow Corning, Midland, Mich.) was prepared by mixing two components in 10:1 ratio, as recommended by the manufacturer. […]
After assembly, different sections of the device were chemically modified for specific functionalities. […] The surface of the chemotaxis chamber, where neutrophils were captured and assessed for their chemotactic responses, were modified by physical adsorption of P-selectin (10 ng/mL for 30 minutes, R&D Systems, Minneapolis, Minn.) immediately before use. […]

Series [5] deals with peripheral blood monocytes. In words: RANKL-induced differentiation of peripheral blood monocytes into osteoclasts. Type of series: cell-based. Conditions: RANKL treatment. From the text:
This effect is even more pronounced than for PRP (platelet rich plasma) a recognized inhibitor of osteoclast differentiation. Preparations of 5, 10, 20% PRP are compared with RvE1 were quantified in experiments in which peripheral blood monocytes were induced to differentiate into osteoclasts with RANKL treatment.
In order to investigate the etiology of resolvins in bone regeneration, the inventors investigated the effect of RvE1 on osteoclast differentiation. In these experiments, peripheral blood monocytes were induced to differentiate into osteoclasts with RANKL treatment.

Series [6] deals with P. gingivalis-induced periodontitis. As to the kind of experiment: Rabbit periodontitis induced with Porphyromonas gingivalis, RvE1 topical monotherapy. The class given is in vivo. The text has this:
The inventors established a small animal model for the evaluation of disease progression and regeneration after treatment using the rabbit as a model induced with periodontitis using Porphyromonas gingivalis. Briefly, ligatures were tied around the second mandibular premolar of rabbits for 6wk to create an environment where the periodontopatogen P. gingivalis could be retained. […] The right panel is the same preparation but with the jaws defleshed to show the bone underneath. […] FIG. 13 sows that the bone loss extends from the crest of the bone to the depth of the infrabony pocket.
The figures illustrate the new deposition of the cementum (NC) the new periodontal ligament (PL), connective tissue (CT) and bone (B).

The conditions of series [7]: healthy human subjects; cited from earlier work.

“Also recorded” adds a separate entry of the source.

Turning to `CCC(=O)/C=C/C=C\C[C@@H](O)/C=C/C=C/C=C\[C@@H](O)CCCC(=O)O` [18-oxo-RvE1], the “activity of the lung metabolite” value in series [1] is “devoid of activity”.

Take `COC(=O)CCC[C@H](O)\C=C/C=C/C=C/[C@H](O)C/C=C\C=C\[C@@H](O)COc1ccc(F)cc1` [19-p-fluorophenoxy-RvE1-Me, 19-p-fluorophenoxy-RvE1 methyl ester]: in series [2], the “metabolic inactivation (conversion to 18-oxo) in mouse lung tissue” value was “prevents this metabolic inactivation”. The “percent reduction of MPO found in lungs (FIG. 11), mean±SEM” value in series [3] (1 μg i.v. in vehicle, ischemia-reperfusion) was 19.7 ±7.7%. In series [3], the “effect on leukocyte (PMN) infiltration / MPO in lung tissue, in words” value is “significantly reduced leukocyte infiltration”.

For `CC/C=C\C/C=C\C/C=C\C/C=C\C/C=C\C/C=C\CCC(=O)O` [DHA, [4Z,7Z,10Z,13Z,16Z,19Z]-docosa-4,7,10,13,16,19-hexaenoic acid, reference compound], in series [4], the half-life was 20 h. Further, the “effect on PMN migration (chemotaxis) in IL-8 gradient” value with human PMN was “did not stop PMN migration; also recorded: failed to stop neutrophil chemotaxis”. In addition, in series [3], the “reduction of lung MPO concentration (FIG. 7D), mean±SEM” value is listed as 0±7.7 and the “effect on leukocyte (PMN) infiltration / MPO in lung tissue, in words” value is reported as “neither DHA nor native RvE1 gave significant reduction”.

On to `CC/C=C\C/C=C\C/C=C\C/C=C\C/C=C\CCCC(=O)O` [EPA, [5Z,8Z,11Z,14Z,17Z-icosa-5,8,11,14,17-pentaenoic acid], for which the half-life in series [4] was 67 h.

On to `CC[C@@H](O)/C=C/C=C\C[C@@H](O)/C=C/C=C/C=C\[C@@H](O)CCCC(=O)O` [RvE1, 5S,12R,18R-trihydroxy-6Z,8E,10E,14Z,16E-eicosapentaenoic acid], for which the osteoclast differentiation entry in series [5] (PRP 5, 10, 20%, P<0.05) is listed as “significantly inhibited”. For the same molecule, the “resorption area (FIG. 15)” value in series [5] (increasing amounts) is on record as “significantly decreased”. Further, the “bone regeneration compared with healthy controls (FIG. 13)” value in series [6] (animals with induced periodontitis treated with RvE1) was “approximately 80%”. Also, in series [6] (area of prior periodontal disease), the “histology of regenerated periodontium (undecalcified sections)” value is “establishment of new cementum, new fiber attachment and new bone and connective tissue”. For the same molecule, the “RvE1-induced bone regeneration, in words” value in series [6] (p<0.001) is given as “to pre-disease levels”. In series [3], the “reduction of lung MPO concentration (FIG. 7D), mean±SEM” value is reported as 0±9.3 and the “effect on leukocyte (PMN) infiltration / MPO in lung tissue, in words” value is “inactive”.

Turning to `CC/C=C\C/C=C\C/C=C\CCCCCCCC(=O)O` [α-linolenic acid], in series [7], the “extent of conversion to DHA” value was 0.05 to 4.0% and the “proportion converted to EPA” value is reported as 0.20 to 8.0%.

By half-life is commonly meant the time needed for the level to fall by half in the phase considered.
